Data reported in the supplement of paper PMC10307832.

Columns and labels:
Experiment in all cases: relative viability (nuclei count vs DMSO), 5 days (fraction); higher = more cells survive
[1] = compound: N#CC[C@H](C1CCCC1)n1cc(-c2ncnc3[nH]ccc23)cn1 [Ruxolitinib] + CC(=O)c1c(C)c2cnc(Nc3ccc(N4CCNCC4)cn3)nc2n(C2CCCC2)c1=O [Palbociclib] (partner 0.5 µM)
How it was run: (§1)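 Lung cancer cell lines in 1536-well plates were dosed by pin tool the day after seeding, either with one drug alone or with a fixed anchor-drug dose plus five library-drug doses (not always all listed) in √10 steps. After 5 days, cells were fixed and their nuclei stained in one step (final 0.05% Triton X-100, 1% formaldehyde, 1 ug/ml Hoechst), then counted on 4× images. Relative viability is the nuclei count in treated wells divided by that in vehicle wells. Values are medians of duplicate plates.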

Ruxolitinib + Crizotinib = compound: N#CC[C@H](C1CCCC1)n1cc(-c2ncnc3[nH]ccc23)cn1 [Ruxolitinib] + C[C@@H](Oc1cc(-c2cnn(C3CCNCC3)c2)cnc1N)c1c(Cl)ccc(F)c1Cl [Crizotinib] (partner 1 µM)
How it was run: as §1

VE-821 + Lapatinib = compound: CS(=O)(=O)c1ccc(-c2cnc(N)c(C(=O)Nc3ccccc3)n2)cc1 [VE-821] + CS(=O)(=O)CCNCc1ccc(-c2ccc3ncnc(Nc4ccc(OCc5cccc(F)c5)c(Cl)c4)c3c2)o1 [Lapatinib] (partner 2 µM)
How it was run: as §1

Ruxolitinib + Trametinib = compound: N#CC[C@H](C1CCCC1)n1cc(-c2ncnc3[nH]ccc23)cn1 [Ruxolitinib] + CC(=O)Nc1cccc(-n2c(=O)n(C3CC3)c(=O)c3c(Nc4ccc(I)cc4F)n(C)c(=O)c(C)c32)c1 [Trametinib] (partner 0.02 µM)
How it was run: as §1

Cell Line | relative viability ([1]; first compound 0.08 µM) | relative viability ([1]; first compound 0.253 µM) | relative viability ([1]; first compound 0.8 µM) | relative viability ([1]; first compound 2.53 µM) | relative viability ([1]; first compound 8 µM) | relative viability (Ruxolitinib + Crizotinib; first compound 0.08 µM) | relative viability (Ruxolitinib + Crizotinib; first compound 0.253 µM) | relative viability (Ruxolitinib + Crizotinib; first compound 0.8 µM) | relative viability (Ruxolitinib + Crizotinib; first compound 2.53 µM) | relative viability (Ruxolitinib + Crizotinib; first compound 8 µM) | relative viability (VE-821 + Lapatinib; first compound 0.08 µM) | relative viability (VE-821 + Lapatinib; first compound 0.253 µM) | relative viability (VE-821 + Lapatinib; first compound 0.8 µM) | relative viability (VE-821 + Lapatinib; first compound 2.53 µM) | relative viability (VE-821 + Lapatinib; first compound 8 µM) | relative viability (Ruxolitinib + Trametinib; first compound 0.08 µM) | relative viability (Ruxolitinib + Trametinib; first compound 0.253 µM) | relative viability (Ruxolitinib + Trametinib; first compound 0.8 µM) | relative viability (Ruxolitinib + Trametinib; first compound 2.53 µM) | relative viability (Ruxolitinib + Trametinib; first compound 8 µM)
SK-MES-1 | 0.331 | 0.336 | 0.332 | 0.305 | 0.321 | 1.03 | 0.984 | 1.02 | 0.925 | 0.702 | 0.483 | 0.467 | 0.437 | 0.446 | 0.397 | 0.561 | 0.596 | 0.587 | 0.315 | 0.516
HCC-827 | – | 0.275 | 0.408 | 0.366 | 0.411 | – | 0.878 | 0.734 | 0.856 | 0.826 | 0.221 | 0.201 | 0.189 | 0.201 | 0.209 | – | 0.545 | 0.563 | 0.469 | 0.784
NCI-H596 | – | – | – | – | – | 0.994 | 0.98 | 1.19 | 0.919 | 0.912 | 1.06 | 0.87 | 1.12 | 1.26 | 1 | 0.741 | 0.702 | 0.928 | 0.763 | 0.789
COR-L23 | 0.343 | 0.273 | 0.371 | 0.248 | 0.222 | 0.717 | 0.681 | 0.733 | 0.7 | 0.433 | 1.09 | 0.827 | 1.01 | 1.12 | 0.94 | 0.766 | 0.616 | 0.878 | 0.276 | 0.508
201T | 0.366 | 0.362 | 0.407 | 0.433 | 0.397 | 1.02 | 1.11 | 1.19 | 1.29 | 1.18 | 1.1 | 0.937 | 0.966 | 1.01 | 0.976 | 0.753 | 0.803 | 0.927 | 0.907 | 0.922
NCI-H322M | 0.503 | 0.488 | 0.536 | 0.645 | 0.563 | 0.9 | 1.27 | 1.01 | 1.1 | 1.09 | 0.555 | – | 0.654 | 0.627 | 0.508 | 0.523 | 0.628 | 0.514 | 0.609 | 0.893
LU99A | 0.443 | 0.387 | 0.411 | 0.369 | 0.332 | 0.588 | 0.655 | 0.532 | 0.612 | 0.519 | 1.06 | 1.11 | 1.04 | 0.85 | 0.448 | 0.5 | 0.543 | 0.594 | 0.232 | 0.428
NCI-H2405 | 0.52 | 0.514 | 0.589 | 0.295 | 0.389 | 0.853 | 0.87 | 0.984 | 0.761 | 0.596 | 1.15 | 0.976 | 1.03 | 1.31 | 1.05 | 0.674 | 0.66 | 0.725 | 0.428 | 0.398
LK-2 | 0.863 | 0.696 | 0.787 | 0.701 | 0.686 | – | 0.224 | 0.243 | 0.283 | 0.239 | 1.18 | 0.891 | 0.891 | 0.906 | 0.874 | 0.903 | 0.841 | 1.06 | 0.625 | 0.869
HCC-366 | 0.417 | 0.441 | 0.389 | 0.365 | 0.19 | 0.513 | 0.551 | 0.549 | 0.449 | 0.257 | 1.1 | 1.03 | 0.883 | 0.406 | 0.064 | 0.33 | 0.319 | 0.432 | 0.239 | 0.231
NCI-H441 | 0.218 | 0.206 | 0.302 | 0.241 | 0.309 | 0.682 | 0.585 | 0.847 | 0.724 | 0.555 | – | – | – | – | – | 0.478 | 0.373 | 0.572 | 0.415 | 0.513
COR-L 105 | – | 0.386 | 0.387 | 0.392 | 0.365 | 0.789 | 0.634 | 0.853 | 0.444 | 0.625 | 0.383 | 0.354 | 0.341 | 0.351 | 0.463 | – | 0.472 | 0.424 | 0.381 | 0.432
A-427 | 0.557 | 0.516 | 0.556 | 0.499 | 0.464 | 0.843 | 1.07 | 0.867 | 0.66 | 0.789 | 1.08 | 0.998 | 1.06 | 1.1 | 0.676 | 0.808 | 0.757 | 0.96 | 0.636 | 0.728
HCC-44 | 0.995 | 1.03 | 0.98 | 0.942 | 0.947 | 0.765 | 0.839 | 0.866 | 0.854 | 0.527 | 1.04 | 1.07 | 1.07 | 1.09 | 1.08 | 1.04 | 0.971 | 0.997 | 0.753 | 1.02
NCI-H2170 | 0.382 | 0.39 | 0.412 | 0.359 | 0.407 | 1.14 | 1.23 | 1.19 | 1.05 | 1.1 | 0.289 | 0.278 | 0.256 | 0.272 | 0.272 | 0.868 | 0.895 | 0.879 | 0.867 | 0.933
NCI-H2228 | 0.622 | 0.812 | 0.843 | 0.713 | 0.219 | 0.63 | 0.36 | 0.531 | 0.492 | 0.403 | 1.18 | 1.23 | 1.14 | 1.04 | 0.37 | 0.229 | 0.861 | 0.62 | 0.24 | 0.144
ABC-1 | – | 0.831 | 0.652 | 0.808 | 0.754 | 1.12 | 1.02 | 1.22 | 0.992 | 1.26 | 1.3 | 1.32 | 0.811 | 0.953 | 0.994 | – | – | – | – | –
